# Biological target: T1, Alpha 2C (Homo sapiens, UniProt P18825)
# T1 sequence (P18825 1-462): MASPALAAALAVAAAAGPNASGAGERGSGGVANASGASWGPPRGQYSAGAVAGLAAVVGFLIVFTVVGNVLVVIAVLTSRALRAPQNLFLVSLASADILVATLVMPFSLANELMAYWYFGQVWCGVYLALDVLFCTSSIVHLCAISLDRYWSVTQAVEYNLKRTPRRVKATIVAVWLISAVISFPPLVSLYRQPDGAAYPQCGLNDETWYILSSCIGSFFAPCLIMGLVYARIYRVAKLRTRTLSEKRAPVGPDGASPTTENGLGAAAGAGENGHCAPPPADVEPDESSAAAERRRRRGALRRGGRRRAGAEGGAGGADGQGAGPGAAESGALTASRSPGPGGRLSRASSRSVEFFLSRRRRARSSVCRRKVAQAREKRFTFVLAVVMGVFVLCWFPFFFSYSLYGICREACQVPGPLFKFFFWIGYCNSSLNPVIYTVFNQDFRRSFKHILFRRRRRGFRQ
# Assay: Alpha 2C adrenergic receptor functional activity (procedure of U.S. 60/911,442)
# Type: cell-based
# From the text: U.S. Provisional Patent Application Ser. No. 60/911,442, filed Apr. 12, 2007, describes the procedure used to obtain the data in the table below. That procedure is incorporated by reference herein.
smiles,measurement,value
CCC[C@@H]1CCCC[C@H]1NC(=O)NCCF [1-(2-Fluoro-ethyl)-3-(2R-propyl-1R-cyclohexyl)-urea],Alpha 2C EC50,not active
